Laboratory results published in ChEMBL document CHEMBL1201862, “PubChem BioAssay data set” (2004).
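A five-concentration, 48-hour dose response in 96-well plates underlies each endpoint, interpolated linearly between surrounding concentrations. At the GI50, growth is halved.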 Calls of active or inactive are those of the source. Cut-off read from the data, not from the text of the source: active = GI50 up to about 1.1 µM and inactive = higher.

Tests used:
Test in all cases: NCI-60 cell line screen, 48 h
SNB-75 = tested on: SNB-75
IGROV-1 = tested on: IGROV-1
NCI-H226 = tested on: NCI-H226
KM12 = tested on: KM12
HCC 2998 = tested on: HCC 2998
OVCAR-5 = tested on: OVCAR-5
U-251 = tested on: U-251
SK-OV-3 = tested on: SK-OV-3
HCT-116 = tested on: HCT-116
SF-539 = tested on: SF-539
HT-29 = tested on: HT-29
UO-31 = tested on: UO-31
NCI-H23 = tested on: NCI-H23
A549 = tested on: A549
EKVX = tested on: EKVX
HOP-92 = tested on: HOP-92
DLD-1 = tested on: DLD-1
Hs-578T = tested on: Hs-578T
LOX IMVI = tested on: LOX IMVI
BT-549 = tested on: BT-549

Measured: GI50

Cc1cccc(NC(=O)CC2C(=O)Nc3ccccc3S2(=O)=O)c1C (stereo unspecified)
inactive: SNB-75 16.9 µM | IGROV-1 26.1 µM | NCI-H226 25 µM | KM12 30.8 µM | HCC 2998 28.1 µM | OVCAR-5 > 100 µM | U-251 27 µM | SK-OV-3 21.9 µM | HCT-116 17.2 µM | SF-539 19.8 µM | HT-29 33.2 µM | UO-31 20.9 µM | NCI-H23 16.7 µM | A549 31.2 µM | EKVX > 100 µM | HOP-92 19.1 µM | DLD-1 49.7 µM

NCCCNCc1c2ccccc2c(CNCCCN)c2ccccc12
inactive: SNB-75 19.8 µM | IGROV-1 44.2 µM | KM12 19.2 µM | HCC 2998 17 µM | OVCAR-5 21.3 µM | U-251 33.4 µM | HCT-116 5.35 µM | SF-539 14.6 µM | HT-29 18.2 µM | UO-31 37.8 µM | NCI-H23 18.6 µM | A549 19.2 µM | EKVX 20.3 µM | HOP-92 11.5 µM | DLD-1 34.6 µM

C[C@]12C=CC(=O)C=C1[C@@H](F)C[C@H]1[C@@H]3CC[C@](O)(C(=O)CO)[C@@]3(C)C[C@H](O)[C@@]12F
inactive: SNB-75 > 100 µM | IGROV-1 > 100 µM | NCI-H226 52.6 µM | KM12 > 100 µM | HCC 2998 > 100 µM | OVCAR-5 > 59.6 µM | U-251 > 100 µM | Hs-578T > 100 µM | SK-OV-3 3.33 µM | HCT-116 > 100 µM | SF-539 > 100 µM | HT-29 > 100 µM | UO-31 > 100 µM | LOX IMVI > 100 µM | NCI-H23 > 100 µM | A549 > 100 µM | EKVX > 64.4 µM | BT-549 > 100 µM | HOP-92 > 100 µM | DLD-1 > 100 µM

O=C(CSc1nnc(-c2ccc(/N=C\c3ccc(Cl)cc3)cc2)o1)Nc1ccc(Cl)cc1Cl
inactive: SNB-75 22.7 µM | IGROV-1 32.8 µM | NCI-H226 19.7 µM | KM12 28.6 µM | HCC 2998 > 100 µM | OVCAR-5 94.4 µM | U-251 25.2 µM | SK-OV-3 27.5 µM | HCT-116 22 µM | SF-539 22.2 µM | HT-29 25.8 µM | UO-31 33 µM | NCI-H23 25.3 µM | A549 > 100 µM | EKVX 34.1 µM | HOP-92 22.3 µM | DLD-1 27.3 µM

COc1cc2c(cc1OC)C(Cc1cc(Br)c(OC)c(OC)c1)=[N+](C)CC2
inactive: SNB-75 94.4 µM | IGROV-1 > 100 µM | NCI-H226 31.6 µM | KM12 > 100 µM | HCC 2998 > 100 µM | OVCAR-5 45.1 µM | U-251 8.17 µM | SK-OV-3 > 100 µM | HCT-116 > 100 µM | SF-539 > 100 µM | HT-29 33.2 µM | UO-31 > 100 µM | LOX IMVI 39.3 µM | NCI-H23 14.6 µM | A549 34.8 µM | EKVX > 100 µM | HOP-92 28.2 µM | DLD-1 80 µM

N#Cc1ccccc1/C=N/O
inactive: SNB-75 > 69.5 µM | IGROV-1 > 100 µM | NCI-H226 > 100 µM | KM12 > 100 µM | HCC 2998 > 100 µM | OVCAR-5 > 100 µM | U-251 > 81.1 µM | SK-OV-3 > 100 µM | HCT-116 > 44.2 µM | SF-539 > 100 µM | HT-29 > 75.3 µM | UO-31 > 100 µM | LOX IMVI > 100 µM | NCI-H23 > 100 µM | A549 > 100 µM | EKVX > 100 µM | HOP-92 > 100 µM | DLD-1 > 93.8 µM

CC(O)C(C(=O)O)N(CC1(O)OCC(O)C(O)C1O)N=O (stereo unspecified)
inactive: SNB-75 > 100 µM | IGROV-1 > 100 µM | KM12 > 100 µM | HCC 2998 > 100 µM | OVCAR-5 > 100 µM | U-251 > 100 µM | SK-OV-3 > 100 µM | HCT-116 > 100 µM | SF-539 > 100 µM | HT-29 > 100 µM | UO-31 > 100 µM | LOX IMVI > 100 µM | NCI-H23 > 100 µM | A549 > 100 µM | EKVX > 100 µM | HOP-92 > 100 µM | DLD-1 > 100 µM

COc1cc(-c2nccc3cc(OC)c(OC)cc23)ccc1O
inactive: SNB-75 75.7 µM | IGROV-1 80 µM | NCI-H226 > 100 µM | KM12 48.3 µM | HCC 2998 > 100 µM | OVCAR-5 34.9 µM | U-251 70.6 µM | SK-OV-3 68.2 µM | HCT-116 49 µM | SF-539 35.4 µM | HT-29 30.8 µM | UO-31 > 100 µM | LOX IMVI 36.6 µM | NCI-H23 32.4 µM | A549 > 100 µM | EKVX 35.6 µM | HOP-92 23.9 µM | DLD-1 76.4 µM

C#CCNC(=O)N(CC#C)N=O
inactive: SNB-75 > 100 µM | IGROV-1 > 100 µM | NCI-H226 > 100 µM | KM12 > 100 µM | HCC 2998 > 100 µM | OVCAR-5 > 100 µM | U-251 > 100 µM | SK-OV-3 > 100 µM | HCT-116 > 100 µM | SF-539 > 100 µM | HT-29 > 100 µM | UO-31 > 100 µM | LOX IMVI 38.6 µM | NCI-H23 > 100 µM | EKVX > 100 µM | HOP-92 > 100 µM | DLD-1 > 100 µM

O=C1C(O)=C(CC=C(Cl)Cl)C(=O)c2ccccc21
inactive: SNB-75 50.6 µM | IGROV-1 6.5 µM | KM12 6.46 µM | HCC 2998 28 µM | OVCAR-5 47.5 µM | U-251 2.62 µM | Hs-578T 42.4 µM | SK-OV-3 41.6 µM | HCT-116 1.36 µM | SF-539 10 µM | HT-29 4.6 µM | UO-31 20.7 µM | LOX IMVI 2.23 µM | NCI-H23 27.9 µM | A549 4.44 µM | EKVX 42.3 µM | BT-549 18.3 µM | HOP-92 43 µM | DLD-1 1.65 µM

COc1cc(/C=C2\CCC(CN(C)C)C2=O)ccc1OC(=O)c1ccccc1 (stereo unspecified)
inactive: SNB-75 16 µM | IGROV-1 13.8 µM | NCI-H226 18.2 µM | KM12 2.99 µM | HCC 2998 16.3 µM | OVCAR-5 18.8 µM | U-251 16.2 µM | Hs-578T 8.02 µM | SK-OV-3 23.1 µM | HCT-116 6.68 µM | SF-539 14.1 µM | HT-29 8.07 µM | UO-31 16.3 µM | LOX IMVI 3.86 µM | NCI-H23 16.1 µM | A549 23.6 µM | EKVX 14.2 µM | BT-549 16.1 µM | HOP-92 17.4 µM | DLD-1 4.67 µM

Cn1c(=O)c(/N=N/c2c(=O)n(C)c(=O)n3c2[nH]c2ccccc23)c2[nH]c3ccccc3n2c1=O
inactive: SNB-75 29.1 µM | IGROV-1 86.7 µM | NCI-H226 36.3 µM | KM12 > 100 µM | HCC 2998 > 100 µM | OVCAR-5 > 100 µM | U-251 22.4 µM | SK-OV-3 > 100 µM | HCT-116 6.95 µM | SF-539 57.4 µM | HT-29 > 100 µM | UO-31 87.3 µM | LOX IMVI 6.24 µM | NCI-H23 71.1 µM | A549 92.7 µM | EKVX > 100 µM | HOP-92 94.2 µM | DLD-1 > 100 µM

O=C(NNC(=O)/C(=C/c1cccc([N+](=O)[O-])c1)NC(=O)c1ccccc1)Nc1ccc(Cl)cc1
inactive: SNB-75 13.6 µM | IGROV-1 11.9 µM | NCI-H226 15.1 µM | KM12 11.4 µM | HCC 2998 13.1 µM | OVCAR-5 18.3 µM | U-251 14.2 µM | SK-OV-3 15.8 µM | HCT-116 13.4 µM | SF-539 16.7 µM | HT-29 14.1 µM | UO-31 13.5 µM | LOX IMVI 15.6 µM | NCI-H23 15.1 µM | A549 14.3 µM | EKVX 18.7 µM | HOP-92 21 µM | DLD-1 12.6 µM

O=C(Nc1cccc(C(F)(F)F)c1)C(=O)C1NC(=S)NC1=O (stereo unspecified)
inactive: SNB-75 > 100 µM | IGROV-1 > 100 µM | NCI-H226 > 100 µM | KM12 > 100 µM | HCC 2998 > 100 µM | OVCAR-5 > 100 µM | SK-OV-3 > 100 µM | HCT-116 82.4 µM | SF-539 > 100 µM | HT-29 61.9 µM | UO-31 > 100 µM | LOX IMVI 72.9 µM | NCI-H23 > 100 µM | A549 > 100 µM | EKVX > 100 µM | HOP-92 > 100 µM | DLD-1 > 100 µM

Cc1ccc(S(=O)(=O)NC(=O)NCCc2ccccc2)cc1
inactive: SNB-75 68.2 µM | IGROV-1 > 100 µM | NCI-H226 > 100 µM | KM12 > 100 µM | HCC 2998 > 100 µM | OVCAR-5 > 100 µM | U-251 > 100 µM | SK-OV-3 > 100 µM | HCT-116 > 100 µM | SF-539 > 100 µM | UO-31 51.8 µM | LOX IMVI > 100 µM | NCI-H23 76.7 µM | A549 > 100 µM | EKVX > 100 µM | HOP-92 > 100 µM | DLD-1 > 100 µM
